The source of these data is patent US20260356846A1, “STATIN DERIVATIVES AND METHODS OF USING THE SAME” (The General Hospital Corporation, priority 2023, published 2026).

Structures are written as SMILES. pEC50: −log10 of the molar value. Where two headings read alike, the source gives them in different places.

For data set [1], the system named is STMN2 (WT STMN2-NLuc SH-SY5Y cells). In words: STMN2 nanoluciferase assay in WT SH-SY5Y cells (Table A: WT TDP-32; Table B: WT HD Luciferase). In kind it is cell-based, human. To be noted: WT cell line; for maximal fold induction / HD Luciferase (WT, Emax): Emax. As to the method:
(§1) Neuroblastoma cells (ATCC) were cultured in DMEM/F12 (Gibco) supplemented with 10% fetal-bovine serum (Omega) and 1% penicillin-streptomycin (Gibco) at 37 °C with 5% CO2. For knockdown experiments, cells were transfected with SMARTpool ON-TARGETplus siRNA or control siRNA pool (D001810-10) (GE Dharmacon) at a final concentration of 50 nM, for 96 h in two doses (0, 24 h), after complexing with Lipofectamin RNAiMAX (Invitrogen) in Opti-MEM (Gibco) for 10 min.
(§2) WT and TDP-mut (N352S) SH-SY5Y cells were edited using CRISPR-Cas9 to express Nanoluciferase at the C-terminus of both endogenous STMN2 alleles. A single guided RNA targeting STMN2 C-terminus was designed (Benchling webtool) and cloned into pSpCas9-2A-green fluorescent protein (GFP) plasmid (px458-Addgene) using the BbsI restriction site. The sequence for guided RNA targeting STMN2 was: […]. For the repair template, overlapping fragments of 800 bp STMN2 homology arms flanking Nanoluciferase (NLuc, Promega) were generated and ligated into pUC57 backbone. A 42 bp GS-linker was also included 5′ to NLuc to prevent steric hindrance of the reporter to the final STMN2 exon. Fragments were ligated using Gibson Assembly and nucleofected simultaneously with pSpCas9-2A-GFP-gRNA plasmid using the Amaxa Nucleofector (assay A-023). Forty-eight hours following electroporation, cells were collected, and GFP-positive cells sorted and single-cell seeded into 96-well plates using the SH800S Sony cell sorter. Individual clones were expanded and DNA was extracted for PCR amplification of the STMN2 Ex5 genomic locus using primers within NLuc and outside the STMN2 5′ homology arm to confirm presence of the insert. The entire STMN2 coding region and all exon-intron junctions (>500-bp length of each intronic region) were then sequenced to verify the absence of any additional DNA alteration. qPCR analysis was performed with a wild-type isogenic SH-SY5Y cell line that had undergone the mutagenesis attempt but not acquired the insertion mutation during the original screening process.
(§3) TDP-mut STMN2-NLuc SH-SY5Y cells were used in small-molecule screening at ICCB-Longwood. 3000 cells/well were plated in white 384-well plates using a 50 ul sample volume. 24 hours after plating, compounds were added using 100 nl pin transfer. 24 hours later, 25 ul NLuc assay was added to each well according to manufacturer instructions (Promega, Cat #). Plates were shaken for 1 min prior to luminescence readings using EnVision2 machine. DMSO-only and WT STMN2-NLuc cells were included as negative and positive controls respectively on each plate, producing an average Z′score of ~0.7 across the screen. Each library plate was conducted in duplicate, and Z-scores calculated for each compound. For subsequent validation experiments, cell numbers in each well were quantified by hoescht staining at 1 μg/ml for 15 mins at 37C in black, clear bottom plates, prior to imaging at 4× using automated microscopy (ImageXpressMicro). Nuclei were then counted using a custom algorithm, and luciferase assay run as above. Luminescence results were then normalised against cell counts as RLU/cell.
(§4) Each compound was tested in triplicate in log doses ranging 0.01 μM−10 μM. The values are represented in luminescence normalized to the number of cells in the well, wherein darker grey correlates to higher RLU per cell and higher STMN2 protein expression.

In data set [2] the test system is STMN2 (TDP-mut (N352S) STMN2-NLuc SH-SY5Y cells). As to the kind of experiment: STMN2 nanoluciferase assay in TDP-43 mutant SH-SY5Y cells (Table A: mut TDP-43; Table B: mut HD Luciferase). In kind it is cell-based, human. To be noted: mutant TDP-43 cell line. As to the method:
as §1, §2, §3, §4

[3] abbreviates: Homo sapiens, SH-SY5Y, Table A, read-out: EC50, WT TDP-32.
The mark [4] stands for this setting: Homo sapiens, SH-SY5Y, Table A, read-out: EC50, mut TDP-43.
[5] abbreviates: Homo sapiens, SH-SY5Y, Table B, read-out: EC50, WT HD Luciferase.
The mark [6] stands for this setting: Homo sapiens, SH-SY5Y, Table B, read-out: EC50, mut HD Luciferase.
The mark [7] stands for this setting: Table B, read-out: EC50, WT HD Luciferase.
The mark [8] stands for this setting: Table B, read-out: EC50, mut HD Luciferase.

For `COCc1c(C(C)C)nc(C(C)C)c(/C=C/[C@@H](O)C[C@@H](O)CC(=O)O)c1-c1ccc(F)cc1` [Cerivastatin, cerivastatin, reference compound], the pEC50 in data set [1] (setting [3]) was 6.30 to 7.00; in data set [2] (setting [4]), not below 7.00.
For `Cc1csc2c(-c3ccc(F)cc3)c(/C=C/[C@@H](O)C[C@@H](O)CC(=O)O)c(C3CC3)nc12` [Example I-1, (3R,5S,E)-7-(5-cyclopropyl-7-(4-fluorophenyl)-3-methylthieno[3,2-b]pyridin-6-yl)-3,5-dihydroxyhept-6-enoic acid], the pEC50 was not below 7.00 in data set [1] (setting [3]), 7.30 to 8.00 in data set [1] (setting [5]), not below 7.00 in data set [2] (setting [4]) and not below 8.00 in data set [2] (setting [6]). This compound registered a maximal fold induction in data set [1] (Homo sapiens, SH-SY5Y, Table B) of 1.5 to 1.75.
In turn, `O=C(O)C[C@H](O)C[C@H](O)/C=C/c1c(C2CC2)nc2scnc2c1-c1ccc(F)cc1` [Example I-2, (3R,5S,E)-7-(5-cyclopropyl-7-(4-fluorophenyl)thiazolo[5,4-b]pyridin-6-yl)-3,5-dihydroxyhept-6-enoic acid] had a maximal fold induction in data set [1] (Homo sapiens, SH-SY5Y, Table B) of 1 to 1.25. Besides, the pEC50 in data set [1] (setting [5]) and in data set [2] (setting [6]) was not above 6.30 each time. Moreover, in data set [2] (Table B), the “HD Luciferase (mut, Emax)” value was “* (means≥1 and <1.25)”.
For `Cc1nc2c(-c3ccc(F)cc3)c(/C=C/[C@@H](O)C[C@@H](O)CC(=O)O)c(C3CC3)nc2s1` [Example I-3, (3R,5S,E)-7-(5-cyclopropyl-7-(4-fluorophenyl)-2-methylthiazolo[5,4-b]pyridin-6-yl)-3,5-dihydroxyhept-6-enoic acid], the pEC50 in data set [1] (setting [3]) was not above 5.00; in data set [1] (setting [5]), not above 6.30; in data set [2] (setting [4]) it was 5.00 to 5.30; in data set [2] (setting [6]), not above 6.30. Further, in data set [1] (Homo sapiens, SH-SY5Y, Table B), the maximal fold induction lay in the range of 1 to 1.25. Moreover, the “HD Luciferase (mut, Emax)” value in data set [2] (Table B) is “* (means≥1 and <1.25)”.
Take `O=C(O)C[C@H](O)C[C@H](O)/C=C/c1c(C2CC2)nc2ccsc2c1-c1ccc(F)cc1` [Example I-4, (3R,5S,E)-7-(5-cyclopropyl-7-(4-fluorophenyl)thieno[3,2-b]pyridin-6-yl)-3,5-dihydroxyhept-6-enoic acid]: the pEC50 in data set [1] (setting [3]) was 6.30 to 7.00; in data set [1] (setting [5]) it was 7.30 to 8.00; in data set [2] (setting [4]), 6.30 to 7.00; in data set [2] (setting [6]), 7.30 to 8.00.
As to `Cc1cc2c(-c3ccc(F)cc3)c(/C=C/[C@@H](O)C[C@@H](O)CC(=O)O)c(C3CC3)nc2s1` [Example I-5a, (3R,5S,E)-7-(6-cyclopropyl-4-(4-fluorophenyl)-2-methylthieno[2,3-b]pyridin-5-yl)-3,5-dihydroxyhept-6-enoic acid], the maximal fold induction in data set [1] (Homo sapiens, SH-SY5Y, Table B) was 1 to 1.25. Moreover, the pEC50 in data set [1] (setting [7]) and in data set [2] (setting [8]) was not above 6.30 in each case. Moreover, the “HD Luciferase (mut, Emax)” value in data set [2] (Table B) was “* (means≥1 and <1.25)”.
Turning to `Cc1cc2c(-c3ccc(F)cc3)c(/C=C/[C@@H](O)C[C@@H](O)CC(=O)O)c(C3CC3)nc2s1` [Example I-5b, (3R,5S,E)-7-(6-cyclopropyl-4-(4-fluorophenyl)-2-methylthieno[2,3-b]pyridin-5-yl)-3,5-dihydroxyhept-6-enoic acid], the “HD Luciferase (WT, Emax)” value in data set [1] (Table B) was “** (means≥1.25 and <1.5)”. In addition, the pEC50 in data set [1] (setting [7]) is 6.30 to 7.00; in data set [2] (setting [8]) it was 7.00 to 7.30. Further, in data set [2] (Table B), the “HD Luciferase (mut, Emax)” value was “** (means≥1.25 and <1.5)”.
With `Cc1cc2c(-c3ccc(F)cc3)c(/C=C/[C@@H](O)C[C@@H](O)CC(=O)O)c(C3CC3)nc2s1` [Example I-5c, (3R,5S,E)-7-(6-cyclopropyl-4-(4-fluorophenyl)-2-methylthieno[2,3-b]pyridin-5-yl)-3,5-dihydroxyhept-6-enoic acid], the “HD Luciferase (WT, Emax)” value in data set [1] (Table B) was “** (means≥1.25 and <1.5)”. In addition, the pEC50 in data set [1] (setting [7]) and in data set [2] (setting [8]) was 6.30 to 7.00 throughout.
For the compound `Cc1cc2nc(C3CC3)c(/C=C/[C@@H](O)C[C@@H](O)CC(=O)O)c(-c3ccc(F)cc3)c2s1` [Example I-6, (3R,5S,E)-7-(5-cyclopropyl-7-(4-fluorophenyl)-2-methylthieno[3,2-b]pyridin-6-yl)-3,5-dihydroxyhept-6-enoic acid], in data set [1] (Homo sapiens, SH-SY5Y, Table B), the maximal fold induction lay within 1.25 to 1.5. For the same compound, the pEC50 in data set [1] (setting [5]) and in data set [2] (setting [6]) was 7.30 to 8.00 each time.
For `Cc1nc2c(-c3ccc(F)cc3)c(/C=C/[C@@H](O)C[C@@H](O)CC(=O)O)c(C3CC3)cc2s1` [Example I-7, (3R,5S,E)-7-(6-cyclopropyl-4-(4-fluorophenyl)-2-methylbenzo[d]thiazol-5-yl)-3,5-dihydroxyhept-6-enoic acid], the pEC50 was 5.30 to 6.00 in data set [1] (setting [3]), 6.30 to 7.00 in data set [1] (setting [5]), 5.30 to 6.00 in data set [2] (setting [4]) and 6.30 to 7.00 in data set [2] (setting [6]). In data set [1] (Homo sapiens, SH-SY5Y, Table B), the maximal fold induction was in the range of 1 to 1.25. Further, the “HD Luciferase (mut, Emax)” value in data set [2] (Table B) was “** (means≥1.25 and <1.5)”.
As for `Cc1nc2cc(C3CC3)c(/C=C/[C@@H](O)C[C@@H](O)CC(=O)O)c(-c3ccc(F)cc3)c2s1` [Example I-8, (3R,5S,E)-7-(5-cyclopropyl-7-(4-fluorophenyl)-2-methylbenzo[d]thiazol-6-yl)-3,5-dihydroxyhept-6-enoic acid], the pEC50 in data set [1] (setting [3]) is 6.30 to 7.00; in data set [1] (setting [5]), 7.30 to 8.00; in data set [2] (setting [4]), 6.30 to 7.00; in data set [2] (setting [6]), 7.30 to 8.00. The compound further showed a maximal fold induction in data set [1] (Homo sapiens, SH-SY5Y, Table B) of 1.25 to 1.5.
With `O=C(O)C[C@H](O)C[C@H](O)/C=C/c1c(C2CC2)cc2scnc2c1-c1ccc(F)cc1` [Example I-9, (3R,5S,E)-7-(6-cyclopropyl-4-(4-fluorophenyl)benzo[d]thiazol-5-yl)-3,5-dihydroxyhept-6-enoic acid], the pEC50 is not above 5.00 in data set [1] (setting [3]), not above 6.30 in data set [1] (setting [5]), 5.00 to 5.30 in data set [2] (setting [4]) and not above 6.30 in data set [2] (setting [6]). Further, the maximal fold induction in data set [1] (Homo sapiens, SH-SY5Y, Table B) fell in the range of 1 to 1.25. The “HD Luciferase (mut, Emax)” value in data set [2] (Table B) was “* (means≥1 and <1.25)”.
For `Cc1csc2nc(C3CC3)c(/C=C/[C@@H](O)C[C@@H](O)CC(=O)O)c(-c3ccc(F)cc3)c12` [Example I-10, (3R,5S,E)-7-(6-cyclopropyl-4-(4-fluorophenyl)-3-methylthieno[2,3-b]pyridin-5-yl)-3,5-dihydroxyhept-6-enoic acid], the pEC50 in data set [1] (setting [5]) and in data set [2] (setting [6]) was 7.30 to 8.00 throughout.
On to `O=C(O)C[C@H](O)C[C@H](O)/C=C/c1c(C2CC2)cc2ncsc2c1-c1ccc(F)cc1` [Example I-11, (3R,5S,E)-7-(5-cyclopropyl-7-(4-fluorophenyl)benzo[d]thiazol-6-yl)-3,5-dihydroxyhept-6-enoic acid], for which the pEC50 in data set [1] (setting [5]) and in data set [2] (setting [6]) was 7.30 to 8.00 throughout. In addition, in data set [2] (Table B), the “HD Luciferase (mut, Emax)” value is “** (means≥1.25 and <1.5)”.
On to `Cc1cc(F)ccc1-c1c(/C=C/[C@@H](O)C[C@@H](O)CC(=O)O)c(C2CC2)nc2c(C)csc12` [Example I-13, (3R,5S,E)-7-(5-cyclopropyl-7-(4-fluoro-2-methylphenyl)-3-methylthieno[3,2-b]pyridin-6-yl)-3,5-dihydroxyhept-6-enoic acid], for which the pEC50 in data set [1] (setting [5]) and in data set [2] (setting [6]) was 7.30 to 8.00 each time.
Take `Cc1csc2c(-c3ccc(F)cc3Cl)c(/C=C/[C@@H](O)C[C@@H](O)CC(=O)O)c(C3CC3)nc12` [Example I-15, (3R,5S,E)-7-(7-(2-chloro-4-fluorophenyl)-5-cyclopropyl-3-methylthieno[3,2-b]pyridin-6-yl)-3,5-dihydroxyhept-6-enoic acid]: the pEC50 in data set [1] (setting [5]) and in data set [2] (setting [6]) was 7.30 to 8.00 throughout.
